# Test results reported in PubChem BioAssay (NCI).
#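 Assay format: 96-well plates, 48-hour exposure. At the TGI there is no net growth.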
# What was measured:
# Assay in all cases: NCI tumour cell line growth inhibition, 48 h
# HOP-18 NSCLC = tested on: HOP-18 NSCLC
# SK-MEL-28 melanoma = tested on: SK-MEL-28 melanoma
# OVCAR-8 ovarian = tested on: OVCAR-8 ovarian
# RXF 393 renal = tested on: RXF 393 renal
# EKVX NSCLC = tested on: EKVX NSCLC
# NCI-H522 lung = tested on: NCI-H522 lung
# KM20L2 colon = tested on: KM20L2 colon
# M14 melanoma = tested on: M14 melanoma
# MALME-3M melanoma = tested on: MALME-3M melanoma
# UACC-62 melanoma = tested on: UACC-62 melanoma
# CAKI-1 renal = tested on: CAKI-1 renal
# A498 renal = tested on: A498 renal
# OVCAR-3 ovarian = tested on: OVCAR-3 ovarian
# HCC-2998 colon = tested on: HCC-2998 colon
# IGROV1 ovarian = tested on: IGROV1 ovarian
# M19-MEL melanoma = tested on: M19-MEL melanoma
# 786-0 renal = tested on: 786-0 renal
# OVCAR-4 ovarian = tested on: OVCAR-4 ovarian
# NCI-H460 lung = tested on: NCI-H460 lung
# ACHN renal = tested on: ACHN renal
# A549 NSCLC = tested on: A549 NSCLC
# CCRF-CEM leukemia = tested on: CCRF-CEM leukemia
# XF 498 CNS = tested on: XF 498 CNS
# HL-60(TB) leukemia = tested on: HL-60(TB) leukemia
# LXFL 529 NSCLC = tested on: LXFL 529 NSCLC
# UACC-257 melanoma = tested on: UACC-257 melanoma
# RXF-631 renal = tested on: RXF-631 renal
# SNB-75 CNS = tested on: SNB-75 CNS
# NCI-H23 lung = tested on: NCI-H23 lung
# SF-268 CNS = tested on: SF-268 CNS
# RPMI-8226 leukemia = tested on: RPMI-8226 leukemia
# SN12C renal = tested on: SN12C renal
# SW-620 colon = tested on: SW-620 colon
# K-562 leukemia = tested on: K-562 leukemia
# HCT-116 colon = tested on: HCT-116 colon
# SNB-78 CNS = tested on: SNB-78 CNS
# KM12 colon = tested on: KM12 colon
# HT29 colon = tested on: HT29 colon
# HOP-92 NSCLC = tested on: HOP-92 NSCLC
# HCT-15 colon = tested on: HCT-15 colon
# TK-10 renal = tested on: TK-10 renal
# SF-295 CNS = tested on: SF-295 CNS
# COLO 205 colon = tested on: COLO 205 colon
# MOLT-4 leukemia = tested on: MOLT-4 leukemia
# SK-MEL-5 melanoma = tested on: SK-MEL-5 melanoma
# U251 CNS = tested on: U251 CNS
# SR leukemia = tested on: SR leukemia
# SF-539 CNS = tested on: SF-539 CNS
# HOP-62 NSCLC = tested on: HOP-62 NSCLC
# LOX IMVI melanoma = tested on: LOX IMVI melanoma
# SK-OV-3 ovarian = tested on: SK-OV-3 ovarian
# SK-MEL-2 melanoma = tested on: SK-MEL-2 melanoma
# DMS 273 small cell lung = tested on: DMS 273 small cell lung
# UO-31 renal = tested on: UO-31 renal
# DMS 114 small cell lung = tested on: DMS 114 small cell lung
# DLD-1 colon = tested on: DLD-1 colon
# SNB-19 CNS = tested on: SNB-19 CNS
# OVCAR-5 ovarian = tested on: OVCAR-5 ovarian
# P388/ADR leukemia = tested on: P388/ADR leukemia
# SN12K1 renal = tested on: SN12K1 renal
# NCI-H226 lung = tested on: NCI-H226 lung
# P388 leukemia = tested on: P388 leukemia
structure (smiles),measurement,setting,value
C=C1C(=O)OC2C1C(OC(=O)/C(C)=C\C)CC1(CO1)C1C(O)C=C(C)C21O (configuration not stated),TGI,HOP-18 NSCLC,23.3 µM
same,TGI,SK-MEL-28 melanoma,13.2 µM
same,TGI,OVCAR-8 ovarian,6.03 µM
same,TGI,RXF 393 renal,7.09 µM
same,TGI,EKVX NSCLC,26.5 µM
same,TGI,NCI-H522 lung,2.3 µM
same,TGI,KM20L2 colon,10.8 µM
same,TGI,M14 melanoma,7.58 µM
same,TGI,MALME-3M melanoma,7.65 µM
same,TGI,UACC-62 melanoma,5.81 µM
same,TGI,CAKI-1 renal,6.36 µM
same,TGI,A498 renal,17.7 µM
same,TGI,OVCAR-3 ovarian,11.3 µM
same,TGI,HCC-2998 colon,15.1 µM
same,TGI,IGROV1 ovarian,29.7 µM
same,TGI,M19-MEL melanoma,25.4 µM
same,TGI,786-0 renal,8.5 µM
same,TGI,OVCAR-4 ovarian,20.7 µM
same,TGI,NCI-H460 lung,29.4 µM
same,TGI,ACHN renal,13.9 µM
same,TGI,A549 NSCLC,40.6 µM
same,TGI,CCRF-CEM leukemia,> 100 µM
same,TGI,XF 498 CNS,25.7 µM
same,TGI,HL-60(TB) leukemia,> 100 µM
same,TGI,LXFL 529 NSCLC,3.42 µM
same,TGI,UACC-257 melanoma,21.7 µM
same,TGI,RXF-631 renal,16.9 µM
same,TGI,SNB-75 CNS,29.2 µM
same,TGI,NCI-H23 lung,27.2 µM
same,TGI,SF-268 CNS,17.4 µM
same,TGI,RPMI-8226 leukemia,22.2 µM
same,TGI,SN12C renal,14.5 µM
same,TGI,SW-620 colon,3.34 µM
same,TGI,K-562 leukemia,> 100 µM
same,TGI,HCT-116 colon,3.29 µM
same,TGI,SNB-78 CNS,34.9 µM
same,TGI,KM12 colon,24.4 µM
same,TGI,HT29 colon,31.4 µM
same,TGI,HOP-92 NSCLC,31.3 µM
same,TGI,HCT-15 colon,11 µM
same,TGI,TK-10 renal,9.35 µM
same,TGI,SF-295 CNS,41.7 µM
same,TGI,COLO 205 colon,2.62 µM
same,TGI,MOLT-4 leukemia,11.8 µM
same,TGI,SK-MEL-5 melanoma,17.7 µM
same,TGI,U251 CNS,24.5 µM
same,TGI,SR leukemia,24.2 µM
same,TGI,SF-539 CNS,8.06 µM
same,TGI,HOP-62 NSCLC,41.1 µM
same,TGI,LOX IMVI melanoma,30.6 µM
same,TGI,SK-OV-3 ovarian,30.5 µM
same,TGI,SK-MEL-2 melanoma,12.5 µM
same,TGI,DMS 273 small cell lung,20 µM
same,TGI,UO-31 renal,22.2 µM
same,TGI,DMS 114 small cell lung,20.6 µM
same,TGI,DLD-1 colon,7.8 µM
same,TGI,SNB-19 CNS,35.2 µM
same,TGI,OVCAR-5 ovarian,34.3 µM
CCC(C)C1NC(=O)CNC(=O)C2Cc3c([nH]c4cc(O)ccc34)S(=O)CC(NC(=O)CNC1=O)C(=O)NC(CC(=O)O)C(=O)N1CC(O)CC1C(=O)NC(C(C)C(O)CO)C(=O)N2 (configuration not stated),TGI,HOP-18 NSCLC,> 88.9 µM
same,TGI,KM20L2 colon,> 100 µM
same,TGI,M19-MEL melanoma,24.2 µM
same,TGI,P388/ADR leukemia,18.4 µM
same,TGI,SN12K1 renal,> 100 µM
same,TGI,XF 498 CNS,5.88 µM
same,TGI,UACC-257 melanoma,6.73 µM
same,TGI,NCI-H23 lung,5.81 µM
same,TGI,NCI-H226 lung,8.08 µM
same,TGI,SNB-78 CNS,> 100 µM
same,TGI,HOP-92 NSCLC,5.78 µM
same,TGI,P388 leukemia,14.9 µM
same,TGI,DMS 273 small cell lung,14.9 µM
same,TGI,DMS 114 small cell lung,3.78 µM
same,TGI,DLD-1 colon,> 100 µM
CCCCCCCCCCCCCCCC(=O)OC1C(O)C(CO)OC(OC)C1NC(=O)N(CCCl)N=O (configuration not stated),TGI,HOP-18 NSCLC,31.3 µM
same,TGI,SK-MEL-28 melanoma,27.5 µM
same,TGI,OVCAR-8 ovarian,38.1 µM
same,TGI,EKVX NSCLC,34.7 µM
same,TGI,NCI-H522 lung,23.8 µM
same,TGI,KM20L2 colon,32.4 µM
same,TGI,M14 melanoma,36.8 µM
same,TGI,UACC-62 melanoma,17.1 µM
same,TGI,CAKI-1 renal,> 100 µM
same,TGI,OVCAR-3 ovarian,33.4 µM
same,TGI,IGROV1 ovarian,38.3 µM
same,TGI,M19-MEL melanoma,32.3 µM
same,TGI,OVCAR-4 ovarian,36.3 µM
same,TGI,NCI-H460 lung,17.6 µM
same,TGI,ACHN renal,21.9 µM
same,TGI,A549 NSCLC,23.8 µM
same,TGI,XF 498 CNS,30.8 µM
same,TGI,LXFL 529 NSCLC,25.1 µM
same,TGI,UACC-257 melanoma,31.5 µM
same,TGI,RXF-631 renal,32 µM
same,TGI,SNB-75 CNS,24.6 µM
same,TGI,NCI-H23 lung,21 µM
same,TGI,SF-268 CNS,15.5 µM
same,TGI,NCI-H226 lung,33.7 µM
same,TGI,RPMI-8226 leukemia,> 100 µM
same,TGI,SW-620 colon,26.1 µM
same,TGI,K-562 leukemia,66.1 µM
same,TGI,HCT-116 colon,30 µM
same,TGI,SNB-78 CNS,40.2 µM
same,TGI,KM12 colon,35.1 µM
same,TGI,HT29 colon,26.8 µM
same,TGI,HCT-15 colon,54.8 µM
same,TGI,TK-10 renal,28.9 µM
same,TGI,SF-295 CNS,24 µM
same,TGI,COLO 205 colon,40.4 µM
same,TGI,MOLT-4 leukemia,23 µM
same,TGI,SK-MEL-5 melanoma,30.2 µM
same,TGI,U251 CNS,19.9 µM
same,TGI,SR leukemia,23.7 µM
same,TGI,SF-539 CNS,6.16 µM
same,TGI,HOP-62 NSCLC,32.3 µM
same,TGI,LOX IMVI melanoma,23.9 µM
same,TGI,SK-MEL-2 melanoma,44.3 µM
same,TGI,DMS 273 small cell lung,29.4 µM
same,TGI,UO-31 renal,28.5 µM
same,TGI,DMS 114 small cell lung,28 µM
same,TGI,DLD-1 colon,31.5 µM
same,TGI,SNB-19 CNS,23.8 µM
same,TGI,OVCAR-5 ovarian,30.4 µM
